Laboratory results: a melting point compilation (Tetko et al.)

Row | Structure (SMILES) | melting point
1 | O=C(O)C1CCCN(C(=O)NC2CCCC2)C1 (centres undefined) | 167 to 169 °C
2 | CSCCC(NS(=O)(=O)c1ccc2c(c1)OCCO2)C(=O)O (centres undefined) | 93 to 96 °C
3 | NC(=O)Cc1ccc(F)cc1 | 155 to 157 °C
4 | CCC(C)(C)NC(=O)C(Br)C(C)C (centres undefined) | 132 to 134 °C
5 | COc1cc(C)sc1C(=O)O | 159 to 161 °C
6 | CC(C(=O)O)c1cccnc1 (centres undefined) | 85 to 87 °C
7 | O=C(NCc1cccnc1)OCC(F)(F)F | 45 to 47 °C
8 | CNC1(C(=O)O)CCc2ccccc21 (centres undefined) | 279 to 281 °C
9 | O=C(O)CCn1cc(Br)ccc1=O | 172 to 174 °C
10 | O=C(O)C(NS(=O)(=O)c1cccc(Cl)c1)c1ccccc1 (centres undefined) | 168 to 170 °C
11 | CC(C)CC(C(=O)O)N1CCCCC1=O (centres undefined) | 182 to 184 °C
12 | COc1cc(OC)c(NC(=O)c2cc3ccccc3cc2O)cc1Cl | 199 to 201 °C
13 | CN(C)CCN1CC(C(=O)O)CC1=O (centres undefined) | 162 to 164 °C
14 | NC(=O)Cc1ccc(Cl)cc1 | 183 to 185 °C
15 | O=C(O)CCc1ccccc1[N+](=O)[O-] | 109 to 111 °C
16 | CCc1nc(C)c(C(=O)O)s1 | 165 to 167 °C
17 | O=C(O)c1scnc1C1CC1 | 204 to 206 °C
18 | CSc1nc(C(=O)O)cc(C2CC2)n1 | 135 to 137 °C
19 | CCC(N)(C(=O)O)c1ccccc1 (centres undefined) | 285 to 287 °C
20 | CC(C)CNC(=O)NC(=O)CCl | 105 to 107 °C
21 | Cc1cc(N)n(C2CCOCC2)n1 | 177 to 179 °C
22 | CN(C(=O)c1ccccc1O)C1CCCC1 | 65 to 74 °C
23 | Cc1cc(Br)cc(C)c1NCc1ncc[nH]1 | 142 to 144 °C
24 | CC(=O)c1ccc(N2CCCC2)cc1O | 120 to 122 °C
25 | O=C(O)C1CC(=O)N(C2CCS(=O)(=O)C2)C1 (centres undefined) | 255 to 257 °C

Row | Structure (SMILES) | melting point
26 | O=C(O)CCNC(=O)Nc1ccccc1 | 173 to 175 °C
27 | O=C(O)c1cccnc1Nc1cc(F)ccc1F | 248 to 250 °C
28 | CC(Sc1nncn1C)C(=O)O (centres undefined) | 157 to 159 °C
29 | CS(=O)(=O)Nc1ccc(O)cc1 | 158 to 160 °C
30 | CCOC(=O)c1sc2nc(CCl)[nH]c(=O)c2c1C | 190 to 192 °C
31 | CCOC(=O)c1sc2ccsc2c1CBr | 98 to 100 °C
32 | CC(C)(C)C1(C)OC(=O)CC(=O)O1 | 72 to 74 °C
33 | Cc1nn(Cc2cccc(Br)c2)c(C)c1C(=O)O | 174 to 176 °C
34 | Cn1cnnc1CO | 49 to 51 °C
35 | C#CCOc1ccc(C(C)=O)cc1 | 72 to 74 °C
36 | O=[N+]([O-])c1cccc2c1CCN2 | 111 to 113 °C
37 | COCc1ccccc1CNC(=O)CCl | 51 to 53 °C
38 | CCOc1ccc(C(C)=O)cc1CN1CCOCC1 | 33 to 37 °C
39 | CCN(CC)c1ccc(C=C[N+](=O)[O-])cc1 | 98 to 100 °C
40 | CC(=O)Nc1cccc(CCl)c1 | 83 to 85 °C
41 | CCOC(=O)c1c(C2CCCCC2)csc1N | 109 to 111 °C
42 | Cc1ccc(S(=O)(=O)N2CCCC(C(=O)O)C2)cc1 (centres undefined) | 149 to 151 °C
43 | COc1cc(OC)cc(C(=O)N2CCC(C(=O)O)CC2)c1 | 164 to 166 °C
44 | COc1cc(/C=C/C(=O)O)cc(Cl)c1OC(C)C | 113 to 115 °C
45 | CN(C)C(=O)c1csc(C(=O)CCl)c1 | 142 to 144 °C
46 | Cc1cc(C=O)cnc1Cl | 47 to 49 °C
47 | COc1cc(CC#N)cc(Cl)c1OCC(F)(F)F | 98 to 100 °C
48 | NC(=O)NCc1ccccc1F | 147 to 149 °C
49 | Cc1ccc(S(=O)(=O)N(C)c2ccc(OCC(=O)O)cc2)cc1 | 152 to 154 °C
50 | CC(C)(C)OC(=O)N1CC=C(n2c(=O)[nH]c3ccccc32)CC1 | 201 to 203 °C

Row | Structure (SMILES) | melting point
51 | COc1ccccc1NC(=O)c1ccc(NC(=O)CCl)cc1 | 103 to 106 °C
52 | Nc1nc2c3c(ccc2s1)CCCC3 | 122 to 124 °C
53 | C=CCn1c(S)nnc1-c1ccoc1C | 293 to 295 °C
54 | Cc1cc(C=O)c(C)n1-c1ccc(Cl)c(C(F)(F)F)c1 | 88 to 90 °C
55 | c1cnc2c(c1)NCCC2 | 103 to 105 °C
56 | Cc1cc(C(=O)O)c(F)cc1F | 159 to 161 °C
57 | O=C(O)CCc1nc(-c2cccs2)no1 | 108 to 110 °C
58 | CCOC(=O)c1c(N)sc(C(=O)N(C)C)c1C | 118 to 122 °C
59 | Cc1cc(O)cc(=O)n1C(C)C(=O)O (centres undefined) | 258 to 260 °C
60 | Cn1c(=O)[nH]c(=O)c2cc(S(N)(=O)=O)cnc21 | 311 to 313 °C
61 | Cc1nn(C)c(C(F)(F)F)c1C(=O)O | 213 to 215 °C
62 | S=C1Cc2ccccc2N1 | 146 to 148 °C
63 | Cc1ccc(Br)c2c1NC(=O)C2=O | 239 to 241 °C
64 | CN(C)c1nc[nH]c(=O)c1N | 158 to 160 °C
65 | O=S(=O)(c1ccc(F)cc1)N1CCCNCC1 | 180 to 182 °C
66 | CC(=O)c1ccc(N2CCCS2(=O)=O)cc1 | 137 to 139 °C
67 | CC1(O)CCC(N)CC1 (centres undefined) | 89 to 91 °C
68 | CCc1c(O)nc(S)n(-c2cccc(OC)c2)c1=O | 141 to 143 °C
69 | CCC(C#N)NC(=O)c1ccccc1 (centres undefined) | 104 to 106 °C
70 | O=C(CBr)c1ccc(S(=O)(=O)N2CCCC2)cc1 | 121 to 123 °C
71 | CCOC(=O)CN(C(=O)CCl)c1ccccc1 | 130 to 135 °C
72 | Cc1cc(S(=O)(=O)Cl)c(C)cc1Br | 54 to 56 °C
73 | COC(=O)c1cc(S(=O)(=O)Cl)ccc1O | 81 to 83 °C
74 | O=C(O)c1ccc(Sc2ccc(Cl)cc2)o1 | 161 to 163 °C
75 | CNC(C(=O)O)c1cc(F)ccc1F (centres undefined) | 239 to 241 °C

Row | Structure (SMILES) | melting point
76 | CC(C)C(Br)C(=O)N1CCc2ccccc2C1 (centres undefined) | 90 to 92 °C
77 | COc1ccc(C(N)Cc2ccc(F)cc2)cc1 (centres undefined) | 47 to 49 °C
78 | Nc1cnn(-c2nccs2)c1 | 89 to 91 °C
79 | Nc1ccc(CN2CCOCC2)cn1 | 119 to 121 °C
80 | NC(=O)COc1ccc(Cl)cc1S(=O)(=O)Cl | 143 to 145 °C
81 | Cc1nc2n(c1CN1CCNCC1)CCCC2 | 111 to 113 °C
82 | NC(=O)CCNc1cc(Cl)ncn1 | 165 to 167 °C
83 | CC(O)CS(=O)(=O)c1ccccc1 (centres undefined) | 46 to 48 °C
84 | CCC(C)NS(=O)(=O)c1ccc(C(=O)O)cc1 (centres undefined) | 219 to 221 °C
85 | O=C(O)C1CCCN(C(=O)c2ccc3[nH]ncc3c2)C1 (centres undefined) | 239 to 241 °C
86 | O=C(O)c1c2c(nc3ccccc13)C(=Cc1cccs1)CCC2 | 176 to 178 °C
87 | CCc1cc2c(=O)n(N)cnc2s1 | 137 to 139 °C
88 | Cc1n[nH]c(SCC(=O)O)n1 | 228 to 230 °C
89 | NS(=O)(=O)N1CCOCC1 | 161 to 163 °C
90 | O/N=C(/Cc1nc2ccccc2[nH]1)c1cccs1 | 207 to 209 °C
91 | Cc1ccccc1SC(C(=O)O)c1ccccc1 (centres undefined) | 100 to 102 °C
92 | CCCc1cc(=O)[nH]c(CCC)n1 | 69 to 71 °C
93 | CCNC(=O)c1ccc(I)cc1 | 148 to 150 °C
94 | CC1(c2ccc(S(C)(=O)=O)cc2)CO1 (centres undefined) | 96 to 98 °C
95 | O=C(O)C1CSC(c2cccs2)N1 (centres undefined) | 148 to 150 °C
96 | O=C(O)C(Cc1c[nH]c2ccccc12)NS(=O)(=O)c1ccc(Cl)c(C(F)(F)F)c1 (centres undefined) | 185 to 187 °C
97 | NCCc1cccc(OCCCc2ccccc2)c1 | 44 to 46 °C

Now from value to compound:

Row | melting point | Structure (SMILES)
98 | 264 to 266 °C | Cc1nn(-c2ccccc2)c2sc(C(=O)NN)cc12
99 | 184 to 186 °C | CCS(=O)(=O)c1ccc(C(=O)O)c(N)c1
100 | 77 to 79 °C | Cc1cccc(-c2nonc2N)c1
101 | 182 to 184 °C | NC(=NO)c1ccc(-c2ccccc2)cc1
102 | 75 to 77 °C | Cn1c(NCCO)nc2ccccc21
103 | 113 to 115 °C | CC(C)S(=O)(=O)Cc1cccc(N)c1
104 | 133 to 135 °C | Cn1cnnc1-c1ccccc1N
105 | 58 to 60 °C | COc1ccc(N)cc1Br
106 | 323 to 325 °C | CN(C)c1ncnc2cc(C(=O)O)ccc12
107 | 127 to 129 °C | CN1CCc2ccc(N)cc2C1=O
108 | 243 to 245 °C | O=C(O)c1cc2cccc(Cl)c2o1
109 | 228 to 230 °C | O=C(O)c1cc(Cl)c2ccccc2c1O
110 | 135 to 137 °C | Cc1cc(C)nc(SCc2ccc(C(=O)NN)cc2)n1
111 | 100 to 102 °C | CCc1nnc2ccc(Cl)nn12
112 | 215 to 217 °C | O=C(O)c1cc2c(OC(F)F)cccc2[nH]1
113 | 288 to 290 °C | O=C(O)c1c[nH]nc1-c1ccccc1F
114 | 75 to 77 °C | O=C(O)C(F)(F)c1cccc(Cl)c1
115 | 178 to 182 °C | COc1ccccc1NC(=O)c1c(C)n[nH]c1N
116 | 92 to 94 °C | COc1ccc(-c2nc(C)c(C(C)=O)s2)cc1
117 | 62 to 64 °C | COCc1nc(Cl)c2c(-c3ccccc3)csc2n1
118 | 171 to 173 °C | O=c1oc2ccc(O)cc2s1
119 | 210 to 212 °C | NC(=O)c1cccc(C(N)=S)c1
120 | 79 to 81 °C | NCC(=O)Nc1cccc(Br)c1
121 | 79 to 81 °C | Nc1ccc(OCc2cccc(F)c2)c(Cl)c1

Row | melting point | Structure (SMILES)
122 | 90 to 92 °C | Nc1nonc1I
123 | 240 to 242 °C | Cc1cc(C)cc(-c2nnc(S)o2)c1
124 | 95 to 97 °C | Nc1cnn(-c2ccccc2)c1
125 | 80 to 82 °C | Cc1csc(NCCc2ccccc2)n1
126 | 144 to 146 °C | CNCc1cccc(O)c1
127 | 111 to 113 °C | Cc1ccc(NS(=O)(=O)c2ccc(C)c(N)c2)c(C)c1
128 | 120 to 122 °C | CCOC(=O)c1sc(-c2ccc(OC)c(OC)c2)cc1N
129 | 119 to 121 °C | Cc1nn(-c2ccccc2)c(C)c1NC(=O)CCCl
130 | 228 to 230 °C | Nc1nnc(-c2ccc(Cl)cc2Cl)[nH]1
131 | 127 to 129 °C | CC(C)(C)c1ccc(-c2csc(N)n2)cc1
132 | 148 to 150 °C | CC(=O)c1ccccc1NS(=O)(=O)c1ccc(C)cc1
133 | 87 to 89 °C | ClCc1cn(-c2ccccc2)nc1-c1ccccc1
134 | 256 to 258 °C | Cc1nc(-c2ccncc2)nc(O)c1C
135 | 259 to 261 °C | O=c1[nH]c(-c2ccncc2)no1
136 | 135 to 137 °C | CC(=O)c1cccc(NC(=O)OCC(F)(F)F)c1
137 | 144 to 148 °C | O=Cc1cn(-c2ccccc2)nc1-c1ccccc1
138 | 72 to 74 °C | N#Cc1cc(C(F)(F)F)ccc1N
139 | 49 to 51 °C | Nc1cccc2oc(C(F)(F)F)nc12
140 | 109 to 111 °C | Cn1c(Cl)nc2ccccc2c1=O
141 | 161 to 163 °C | Cc1ccc2c(C)c(CCC(=O)O)c(=O)oc2c1
142 | 167 to 169 °C | O=C(O)c1c(Cl)nc2ccccc2c1Cl
143 | 88 to 90 °C | NCc1cnn(-c2cccc(Cl)c2)c1
144 | 115 to 117 °C | O=C1COc2ccc(Cl)cc21
